Experimental data: patent publication US11975099B2, “Ethanol foam sclerosing agent for treating vascular anomalies and preparation method thereof” (QILU HOSPITAL OF SHANDONG UNIVERSITY, priority 2019, dated 2024)

Legend:
rabbit ear edge = assay: Animal experiment: rabbit ear edge injection; assay type: in vivo; conditions: 0.5 mL injected, New Zealand white rabbits
Description: Animal experiment: A first experimental group: the experimental subjects were 20 New Zealand white rabbits with the body weight of 1.5 kg, injected with 0.5 mL of absolute ethanol solution. A second experimental group: the experimental subjects were 20 New Zealand white rabbits with the body weight of 1.5 kg, injected with 0.5 mL of the foam sclerosing agent of Embodiment 1. The edges of ears of the experimental subjects in the first experimental group and the second experimental group were all intact before the experiment.

[1] = Plasma experiment (protein coagulation in anticoagulant blood); conditions: added to 1 mL fresh human anticoagulant blood in test tube
Description: Plasma experiment: A plasma experiment was performed using absolute ethanol and the sclerosing agent solution of Embodiment 1. As shown in A of FIG. 3, 1 mL of fresh human anticoagulant blood was taken. As shown in C of FIG. 3, absolute ethanol was added to a test tube, and as shown in B of FIG. 3, the sclerosing agent solution of Embodiment 1 was added to a test tube.

## CCO [absolute ethanol]
Rabbit ear edge; 3 days
  reaction of ear edge 3 days after the injection: the whole ear has obvious hematoma
Rabbit ear edge; 7 days
  reaction of ear edge 7 days after the injection: the swelling is reduced
Rabbit ear edge; 25 days
  reaction of ear edge 25 days after the injection: the local blood vessels and some normal tissues are destroyed, resulting in tissue defect of the rabbit ear edge
Rabbit ear edge; immediately after injection
  reaction of ear edge immediately after the injection: extensive and large-area hematoma appears on the ear edge immediately
[1]
  coagulation of the protein in the plasma: coagulated the protein in the plasma
